For seven molecules, TGI results are on record in PubChem BioAssay (NCI).

Some test systems named below: A498 renal; HCC-2998 colon; HCT-116 colon; HOP-92 NSCLC; HS 578T breast; HT29 colon; KM12 colon; MDA-MB-435; MDA-N; NCI-H522 lung; NCI/ADR-RES ovarian; RPMI-8226 leukemia; SK-MEL-2 melanoma; SK-MEL-5 melanoma; T-47D breast; TK-10 renal; U251 CNS; MOLT-4 leukemia; NCI-H460 lung.
Holding throughout (assay): NCI tumour cell line growth inhibition, 48 h

Each structure is given as a SMILES string.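 Step 1: Grow cells in 96-well plates. Step 2: Expose to compound for 48 hours at 5 concentrations. Step 3: Interpolate endpoints linearly; if unreached, use highest concentration. TGI denotes the concentration required for complete inhibition of growth.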

Regarding `CC1=NN(C(=O)CC(=O)Nc2ccc(C)cc2)C(=O)C1N=Nc1ccc(C(=O)O)cc1` (configuration not stated), the TGI in the assay on A498 renal, in the assay on HCC-2998 colon, in the assay on HCT-116 colon, with HOP-92 NSCLC, with HS 578T breast and with HT29 colon was more than 100 µM each time. In addition, the TGI in the assay with KM12 colon, with MDA-MB-435, in the assay on MDA-N, with NCI-H522 lung, in the assay on NCI/ADR-RES ovarian and in the assay with RPMI-8226 leukemia was more than 100 µM in each case. Besides, the TGI in the assay on SK-MEL-2 melanoma, in the assay with SK-MEL-5 melanoma, in the assay on T-47D breast, in the assay with TK-10 renal and with U251 CNS was more than 100 µM throughout.
Turning to `COc1cc(OCc2nc3ccccc3n3cccc23)cc(OC)c1OC`, the TGI with A498 renal is more than 100 µM; with HCC-2998 colon, more than 88.3 µM; in the assay on HCT-116 colon, more than 60.5 µM; with HOP-92 NSCLC, more than 100 µM; in the assay with HS 578T breast, more than 100 µM; in the assay with HT29 colon it was more than 100 µM. Moreover, the TGI in the assay with KM12 colon is more than 50.6 µM; with MDA-MB-435 it was more than 52.4 µM; in the assay on MDA-N it was more than 100 µM; in the assay with MOLT-4 leukemia it was 14.3 µM; in the assay with NCI-H460 lung, more than 100 µM; in the assay on NCI-H522 lung it was more than 65.9 µM. Also, the TGI in the assay on NCI/ADR-RES ovarian is more than 80.4 µM; with RPMI-8226 leukemia, 14.6 µM; in the assay with SK-MEL-2 melanoma, more than 100 µM; in the assay on SK-MEL-5 melanoma, 9.35 µM; with T-47D breast, more than 100 µM; with TK-10 renal, more than 88.6 µM. In the assay on U251 CNS, this molecule came in with a TGI of more than 100 µM.
`CCOC(=O)C(C(=O)OCC)=C1NC2(c3ccccc3Nc3ccc(C)cc32)C(C#N)S1` (configuration not stated): the TGI amounted to 29.4 µM with A498 renal; 11.3 µM with HCC-2998 colon; 22 µM with HCT-116 colon; 14.2 µM with HOP-92 NSCLC; 46.5 µM in the assay on HS 578T breast; 15.1 µM in the assay on HT29 colon. Besides, the TGI turned out to be 41.3 µM with KM12 colon; 23.5 µM in the assay with MDA-MB-435; 46.3 µM in the assay with MDA-N; 5.76 µM with MOLT-4 leukemia; 12.7 µM in the assay with NCI-H460 lung; 30 µM in the assay on NCI-H522 lung. Moreover, the TGI with NCI/ADR-RES ovarian came to 25.7 µM; with RPMI-8226 leukemia it was 4.63 µM; with SK-MEL-2 melanoma it was 22.1 µM; with SK-MEL-5 melanoma it was 20 µM; in the assay with T-47D breast, 34.6 µM; in the assay with TK-10 renal it was 31.1 µM. Besides, the TGI in the assay with U251 CNS was 17.9 µM.
In the case of `COc1cc(S(=O)(=O)Nc2nc(-c3ccc(N4C(=O)C(CC(=O)O)SC4c4ccccc4O)cc3)cs2)ccc1Cl` (configuration not stated), the TGI in the assay with A498 renal, with HCC-2998 colon, with HCT-116 colon, in the assay on HOP-92 NSCLC, with HS 578T breast and in the assay with HT29 colon was more than 100 µM throughout. Moreover, the TGI in the assay with KM12 colon, with MDA-MB-435, with MDA-N, with MOLT-4 leukemia, with NCI-H460 lung and in the assay with NCI-H522 lung was more than 100 µM each time. In addition, the TGI with NCI/ADR-RES ovarian, with SK-MEL-2 melanoma, in the assay with SK-MEL-5 melanoma, with T-47D breast, with TK-10 renal and in the assay with U251 CNS was more than 100 µM throughout.
As for `CN(C)c1ccc(/C=N\NC(=O)c2ccccc2Nc2ccccc2C(=O)N/N=C/c2ccc(N(C)C)cc2)cc1`, the TGI with A498 renal, in the assay with HCC-2998 colon, with HCT-116 colon, in the assay on HOP-92 NSCLC, in the assay on HS 578T breast and with HT29 colon was more than 100 µM throughout. In addition, the TGI with KM12 colon, with MDA-MB-435, with MDA-N, in the assay on MOLT-4 leukemia, with NCI-H460 lung and in the assay with NCI/ADR-RES ovarian was more than 100 µM in each case. Besides, the TGI in the assay on RPMI-8226 leukemia, with SK-MEL-2 melanoma, in the assay with SK-MEL-5 melanoma, in the assay with T-47D breast, in the assay with TK-10 renal and in the assay on U251 CNS was more than 100 µM each time.
Take `Cc1oc2c(c1C)S(=O)(=O)C(C#N)C(c1ccccc1)N2` (configuration not stated): the TGI in the assay with A498 renal, in the assay with HCC-2998 colon, with HCT-116 colon, in the assay with HOP-92 NSCLC, in the assay with HS 578T breast and in the assay on HT29 colon was more than 100 µM in each case. Further, the TGI in the assay on KM12 colon was more than 100 µM; with MDA-MB-435, more than 100 µM; in the assay on MDA-N it was 81.5 µM; in the assay with MOLT-4 leukemia, 65.5 µM; in the assay with NCI-H460 lung, more than 100 µM; in the assay with NCI-H522 lung, 40.2 µM. Further, the TGI in the assay on NCI/ADR-RES ovarian, in the assay on SK-MEL-2 melanoma, in the assay on SK-MEL-5 melanoma, in the assay with T-47D breast, in the assay on TK-10 renal and in the assay on U251 CNS was more than 100 µM in each case.
As to `O=C(c1cc(Cl)cc(Cl)c1)N(C(=O)N1CCN(c2ccccc2)CC1)c1ccccc1`, the TGI in the assay with A498 renal, with HCC-2998 colon, with HCT-116 colon, with HOP-92 NSCLC, in the assay on HS 578T breast and with HT29 colon was more than 100 µM in each case. Besides, the TGI in the assay with KM12 colon is more than 100 µM; in the assay on MDA-MB-435, 48.5 µM; in the assay on MDA-N, 30.3 µM; in the assay with MOLT-4 leukemia, more than 100 µM; in the assay on NCI-H460 lung, more than 100 µM; with NCI-H522 lung, more than 100 µM. The TGI in the assay on NCI/ADR-RES ovarian is more than 100 µM; in the assay on SK-MEL-2 melanoma, more than 100 µM; with SK-MEL-5 melanoma, 75.7 µM; with T-47D breast, more than 100 µM; with TK-10 renal, more than 100 µM; in the assay on U251 CNS it was more than 100 µM.
